Type in all cases: in vivo, rat
The test system of experiment [1] is cataract in OXYS rats. In words: Prophylactic effect on cataract (lens changes), ophthalmoscopic examination of OXYS rats. The settings on record: for 2nd stage of cataract: KBr: % of total number of eyes, vitamin E: % of changes; for lens changes observed/registered (cataract morbidity): after oral course from 1.5 to 3 months, % of eyes/cases; for lens changes observed/registered (cataract morbidity) / cataract newly affected/added during the course (20% of eyes already affected at 1.5 months): SkQ1 or KBr 50 nmol per kg. The protocol: (§1) The study was carried out using OXYS and Wistar male rats. The animals were housed in cages (five rats per a cage) and kept under standard laboratory conditions (at 22±1° C., 60% relative humidity, and natural light), provided with a standard rodent diet (PK-120-1, Ltd. ‘Laboratorsnab’, Russia), and given water ad libitum. At the age of 1.5 months after preliminary pupil dilation with 1% tropicamide ophthalmic the rats were examined by ophthalmologist. During the period from 1.5 to 3 months, which is critical for the development of pronounced changes in eye organ of OXYS rats, the animals were given either SkQ1 (50 nmol per kg of body weight), or KBr (50 nmol per kg of body weight) or vitamin E (alfa-tocopherol acetate, 20 mg per kg). We use Vitamin E for a comparison with test antioxidants. Animals received the compounds on a small piece of dried bread before a regular meal, and the control group of animals received the same piece of bread without any compound. After completing the course of antioxidants the animals were weighed and retested with ophthalmoscope. To avoid human factor in the evaluation of compound effects, the researcher who conducted the ophthalmoscopic examination was not told which of the animals received antioxidants.
(§2) The ophthalmoscopic examination was carried out using direct ophthalmoscope “Betta”, Germany. In selected animals under fluorotane narcosis (1-1.5 minutes) eyeground was photographed, fluorescent angiography with the use of “Opton” fundus-camera was conducted or crystalline lenses were examined by means of slitlamp “Opton SL30” using system of automatic image registration (biomicroscopic research).
(§3) The lens state was evaluated according to the classification system accepted in clinical practice (L. A. Katsnelson, T. I. Forofonova, A. Ya. Bunin, 1990) with grades ranging from 0 to 3: score 0—the lens is clear; score 1—spotted weak cloudiness; score 2—multiple spots of cloudiness and score 3—intense cloudiness of the lens core and nucleus. The presence and the degree of spotted changes in macular area were evaluated according to accepted classification: score 0—no changes; score 1—the 1st stage of pathology, when small yellow deposits, known as “drusen” appear underneath the macula; score 2—2nd stage, the development of prominent yellow spot with sharp edges with the size of 0.5 to 1 of the disk diameter (exudative detachment of pigment retinal epithelium); and score 3—3rd stage with extensive hemorrhage into macular area.
(§4) Statistical processing of the results was carried out using the factorial dispersive analysis (ANOVA/MANOVA, Statistica, 5) with post hoc comparison of group average (Newman-Keul test) considering genotype and preparation as independent factors.

The subject of experiment [2] is macular dystrophy in OXYS rats. As to the kind of experiment: Prophylactic effect on macular dystrophy (changes in macular area of retina), ophthalmoscopic examination of OXYS rats. The note with it: for 2nd stage of macular degeneration: KBr: % of these changes; for changes in the macular area of the retina (macular dystrophy morbidity): after oral course from 1.5 to 3 months, % of eyes/cases; for changes in the macular area of the retina (macular dystrophy morbidity) / macular dystrophy newly affected during the course (10% already affected at 1.5 months): SkQ1 or KBr 50 nmol per kg. Here is the method:
as §1, §2, §3, §4

Experiment [3] relates to cataract in OXYS rats. As to the kind of experiment: Therapeutic effect on state of crystalline lenses, OXYS rats aged 10.5 months. The settings on record: for pathological changes of lenses, before vs after the therapy course: 10.5 to 12 months, pair comparisons / comparison of average values; for Changes of lenses, grades (score): examination after therapy course at the age of 12 months, 50 nmol per kg of body weight, score 0-3. The protocol:
as §1, with “[…],” for “During the period from 1.5 to 3 months,”
as §2, §3, §4

In experiment [4] the test system is macular dystrophy (retinopathy) in OXYS rats. As to the kind of experiment: Therapeutic effect on macular area of retina, OXYS rats aged 10.5 months. The settings on record: for pathological changes of retina, before vs after the therapy course / Changes of macular area of retina, grades (score): OXYS rats; for pathological changes of retina, before vs after the therapy course: 10.5 to 12 months, pair comparisons / comparison of average values; for Changes of macular area of retina, grades (score): examination after therapy course at the age of 12 months, 50 nmol per kg of body weight, score 0-3. Here is the method:
as §1, with “During the period from 1.5 to 3 months, which is critical for the development of pronounced changes in eye organ of OXYS rats, the animals were given either SkQ1 (50 nmol per kg of body weight), or KBr (50 nmol per kg of body weight) or vitamin E (alfa-tocopherol acetate, 20 mg per kg).” left out
as §2, §3, §4

A further experiment has as its system lenses of Wistar rats. As to the kind of experiment: Therapeutic experiment, state of crystalline lenses, Wistar rats aged 10.5 months. The note with it: examination after therapy course at the age of 12 months, 50 nmol per kg of body weight, score 0-3. The protocol:
The study was carried out using OXYS and Wistar male rats. The animals were housed in cages (five rats per a cage) and kept under standard laboratory conditions (at 22±1° C., 60% relative humidity, and natural light), provided with a standard rodent diet (PK-120-1, Ltd. ‘Laboratorsnab’, Russia), and given water ad libitum. At the age of 1.5 months after preliminary pupil dilation with 1% tropicamide ophthalmic the rats were examined by ophthalmologist. […]
(§5) The lens state was evaluated according to the classification system accepted in clinical practice (L. A. Katsnelson, T. I. Forofonova, A. Ya. Bunin, 1990) with grades ranging from 0 to 3: score 0—the lens is clear; score 1—spotted weak cloudiness; score 2—multiple spots of cloudiness and score 3—intense cloudiness of the lens core and nucleus. The presence and the degree of spotted changes in macular area were evaluated according to accepted classification: score 0—no changes; score 1—the 1st stage of pathology, when small yellow deposits, known as “drusen” appear underneath the macula; score 2—2nd stage, the development of prominent yellow spot with sharp edges with the size of 0.5 to 1 of the disk diameter (exudative detachment of pigment retinal epithelium); and score 3—3rd stage with extensive hemorrhage into macular area. […]

The subject of another experiment is retina of Wistar rats. In words: Therapeutic experiment, macular area of retina, Wistar rats aged 10.5 months. The note with it: for Changes of macular area of retina, grades (score): Wistar rats, examination after therapy course at the age of 12 months, 50 nmol per kg of body weight, score 0-3. Here is the method:
as §1, with “by ophthalmologist. […], which is” for “by ophthalmologist. During the period from 1.5 to 3 months, which is”, “received antioxidants. […]” for “received antioxidants.”
as §5

Setting [5] is: OXYS rats at 3 months, after course from 1.5 to 3 months.
Setting [6] is: OXYS rats at 3 months, vitamin E 20 mg per kg.
[7] abbreviates: OXYS rats, 1.5 to 3 months, vitamin E 20 mg per kg.
Where [8] appears, read: OXYS rats at 3 months, after course from 1.5 to 3 months, SkQ1 50 nmol per kg.
Where [9] appears, read: OXYS rats, 1.5 to 3 months, SkQ1 50 nmol per kg.
Where [10] appears, read: one month after the end of SkQ1 administration, in contrast to the control group.
[11] abbreviates: OXYS rats after SkQ1 therapy course.

SMILES strings stand for the structures.

As to `CC(=O)Oc1c(C)c(C)c2c(c1C)CCC(C)(CCC[C@H](C)CCC[C@H](C)CCCC(C)C)O2` (some centres unmarked) [vitamin E, alfa-tocopherol acetate], in the experiment with cataract in OXYS rats [1] (setting [5]), the “2nd stage of cataract” value came to 12%. Besides, the “lens changes observed/registered (cataract morbidity)” value (“lens changes observed/registered” below) in the experiment on cataract in OXYS rats [1] (setting [6]) amounted to 58%. Also, in the experiment on cataract in OXYS rats [1] (setting [7]), the “cataract cases, times less than in the control intact group” value came to 1.8 times and the “cataract newly affected/added during the course (20% of eyes already affected at 1.5 months)” value worked out at 38%. In addition, the “2nd stage of macular degeneration” value in experiment [2] (setting [5]) is given as 8%. The “changes in the macular area of the retina (macular dystrophy morbidity)” value (from here on “changes in the macular area”) in experiment [2] (setting [6]) is 54%. The “macular changes, times less than in the control intact group” value in experiment [2] (setting [7]) came to 1.5 times.
Regarding `CC1=C(C)C(=O)C(CCCCCCCCCC[P+](c2ccccc2)(c2ccccc2)c2ccccc2)=CC1=O.[Br-]` [SkQ1], the “stage to which the lens changes corresponded” value in the experiment with cataract in OXYS rats [1] (setting [8]) was 1st stage of cataract. The “lens changes observed/registered” value with cataract in OXYS rats [1] (setting [6]) is 46%. Also, the “cataract cases, times less than in the group supplemented with KBr” value with cataract in OXYS rats [1] (setting [9]) stood at 2.8 times. The “cataract newly affected/added during the course (20% of eyes already affected at 1.5 months)” value with cataract in OXYS rats [1] (setting [7]) is recorded as 26%. Also, the “effect on cataract progression” value in the experiment with cataract in OXYS rats [1] (OXYS rats, FIG. 3) is given as “essentially affected their progression”. In addition, in the experiment with cataract in OXYS rats [1] (setting [10]), the “changes in the state of crystalline lens after the end of the course” value is reported as “no any changes”. Further, in experiment [2] (setting [8]), the “stage to which the macular changes corresponded” value is on record as 1st stage of macular degeneration. In experiment [2] (setting [6]), the “changes in the macular area” value is given as 38%. In addition, the “macular dystrophy cases, times less than in the control group” value in experiment [2] (setting [9]) is 2.8 times. Also, the “macular dystrophy newly affected during the course (10% already affected at 1.5 months)” value in experiment [2] (OXYS rats, 1.5 to 3 months) was determined as 28%. In addition, the “effect on macular dystrophy progression” value in experiment [2] (OXYS rats, FIG. 4) is reported as “essentially affected their progression”. In addition, in experiment [2] (setting [10]), the “changes in the state of retina after the end of the course” value is reported as “no any changes”. Further, in the experiment on cataract in OXYS rats [3], the “pathological changes of lenses, before vs after the therapy course” value was “much less pronounced” and the “Changes of lenses, grades (score)” value is 0.41 ± 0.13 score. Moreover, in experiment [4] (setting [11]), the hemorrhages in retina result is “resolution of hemorrhages”; the “ischemic centers in retina” value is “reduction of quantity and area of ischemic centers”; the puffiness of retina entry is given as “significant reduction of puffiness”. Besides, in experiment [4], the “pathological changes of retina, before vs after the therapy course” value is reported as “much less pronounced” and the “Changes of macular area of retina, grades (score)” value (“Changes of macular area of retina” below) was 0.32 ± 0.13 score. In the experiment with lenses of Wistar rats, the “Changes of lenses, grades (score)” value came out at 0.54 ± 0.14 score. The “animals with changes of retina appropriate to even the most initial stage of disease” value in the experiment on retina of Wistar rats (Wistar rats supplemented with SkQ1, after 45 days) is reported as “practically absent”. Further, the “Changes of macular area of retina” value with retina of Wistar rats was determined as 0.09 ± 0.06 score.
As for `[Br-].[K+]` [KBr, reference compound], the “2nd stage of cataract” value in the experiment on cataract in OXYS rats [1] (setting [5]) was 57%. Further, the “lens changes observed/registered” value in the experiment with cataract in OXYS rats [1] (setting [6]) turned out to be 93%. The “cataract newly affected/added during the course (20% of eyes already affected at 1.5 months)” value in the experiment on cataract in OXYS rats [1] (setting [7]) worked out at 73%. The “2nd stage of macular degeneration” value in experiment [2] (setting [5]) was 13%. The “changes in the macular area” value in experiment [2] (setting [6]) turned out to be 87%. Moreover, in experiment [2] (OXYS rats, 1.5 to 3 months), the “macular dystrophy newly affected during the course (10% already affected at 1.5 months)” value was determined as 77%. Also, in the experiment with cataract in OXYS rats [3], the “pathological changes of lenses, before vs after the therapy course” value is “authentically aggravated”. Moreover, the results for the “Changes of lenses, grades (score)” value with cataract in OXYS rats [3] and in the experiment on lenses of Wistar rats were 1.6 ± 0.23 score and 0.5 ± 0.15 score, respectively. In experiment [4], the “pathological changes of retina, before vs after the therapy course” value is reported as “no any changes”. The “Changes of macular area of retina” value in experiment [4] came out at 1.13 ± 0.17 score; with retina of Wistar rats it was 0.25 ± 0.10 score.

The values are drawn from patent US9572821B2, “Pharmaceutical compositions for preventing and treating eye pathologies” (MITOTECH SA, priority 2006, dated 2017).
